Measured values taken from patent US11639483B2, “Macrocyclic musk lactones and uses thereof” (PHYTO TECH CORP., priority 2021, dated 2023).

How the values were obtained:
[1] = In use comparison of musk lactone mixture A with commercial musks in unperfumed laundry detergent, expert panel; parameters: species or system human; conditions: for DAMP HED / DAMP STR: damp towel; for DAMP HED / DRY TWL 1 DAY HED / DRY TWL 7 DAYS HED / DRY TWL 15 DAYS HED / JAR HED: hedonic; for DAMP STR / DRY TWL 1 DAY STR / DRY TWL 7 DAYS STR / DRY TWL 15 DAYS STR / JAR STR: strength; for DRY TWL 1 DAY HED / DRY TWL 1 DAY STR: dry towel 1 day; for DRY TWL 7 DAYS HED / DRY TWL 7 DAYS STR: dry towel 7 days; for DRY TWL 15 DAYS HED / DRY TWL 15 DAYS STR: dry towel 15 days; for JAR STR: jar (point of purchase)
Method: Olfactive evaluations in use were performed by an expert panel. The range of materials evaluated was comprehensive, including musk products commercially available: Nitromusk, Polycyclic and Macrocyclic categories (Ambrettolide, Dihydro Ambrettolide, Scentolide, Muscone, Muscenone, Velvione, Musk Ambrette, Edenolide, Ethylene Brassylate, Galaxolide, Tonalide, Habanolide, Globanone, Macrolide, Oxalide T and others).
Evaluation samples were prepared using unperfumed laundry detergent (formulation example in Example 4, Table 10) at two different dosages: 10% Solution @ 0.8% (yielding 0.08% musk lactone mixture A) or 1.5% (yielding 0.15% musk lactone mixture A) driven by relative product performance in formulas and practical laboratory practices to execute the comparisons. The concentration of musk lactone mixture A in each evaluation was at the same concentration as the commercial musk.
The evaluations were performed in use stages: Jar (POP—Point of purchase), damp towel, Dry towel (1 day) and Storage Dry towel (7 days and 15 days). A five points scale was utilized, rating both strength and hedonic character: • Strength (STR) is rated as the overall scent power coming up from the substrate, due to physicochemical properties and commonly described as a combination of diffusion, bloom, body and or volume perceptions.

[2] = Appearance of musk in laundry detergent base; assay type: physicochemical
Method: Furthermore, musk lactone mixture A and other musks were also evaluated at two different loadings in laundry detergent base, as shown in Tables 38 and 39.

[3] = 0.04% Musk in laundry detergent base
[4] = 0.08% Musk in laundry detergent base

C[C@@H]1CCCCCCCCCCCCC(=O)C1 [MUSCONE, Muscone]
DAMP HED ([1]; 10% IPM @0.8%): + ((+) directionally superior)
DAMP STR ([1]; 10% IPM @0.8%): ++
DRY TWL 1 DAY HED ([1]; 10% IPM @0.8%): ++
DRY TWL 1 DAY STR ([1]; 10% IPM @0.8%): + ((+) directionally superior)
DRY TWL 7 DAYS HED ([1]; 10% IPM @0.8%): ++
DRY TWL 7 DAYS STR ([1]; 10% IPM @0.8%): + ((+) directionally superior)
DRY TWL 15 DAYS HED ([1]; 10% IPM @0.8%): ++
DRY TWL 15 DAYS STR ([1]; 10% IPM @0.8%): + ((+) directionally superior)
JAR STR ([1]; 10% IPM @0.8%): ++/++
JAR HED ([1]; 10% IPM @0.8%): ++/++

COc1c(C(C)(C)C)cc([N+](=O)[O-])c(C)c1[N+](=O)[O-] [musk ambrette]
DAMP HED ([1]; 10% IPM @0.8%): − ((−) directionally inferior)
DAMP STR ([1]; 10% IPM @0.8%): ++
DRY TWL 1 DAY HED ([1]; 10% IPM @0.8%): 0 (comparable)
DRY TWL 1 DAY STR ([1]; 10% IPM @0.8%): + ((+) directionally superior)
DRY TWL 7 DAYS HED ([1]; 10% IPM @0.8%): 0 (comparable)
DRY TWL 7 DAYS STR ([1]; 10% IPM @0.8%): + ((+) directionally superior)
DRY TWL 15 DAYS HED ([1]; 10% IPM @0.8%): 0 (comparable)
DRY TWL 15 DAYS STR ([1]; 10% IPM @0.8%): + ((+) directionally superior)
JAR STR ([1]; 10% IPM @0.8%): ++
JAR HED ([1]; 10% IPM @0.8%): − ((−) directionally inferior)

CC1CCCCCCCCCCCCC(=O)C1 (stereo not drawn) [l-muscone, muscone laevo]
Appearance [2, 3]: Very cloudy
Appearance [2, 4]: Phase separation

Edenolide
DAMP HED ([1]; 10% IPM @0.8%): −/− ((−) directionally inferior)
DAMP STR ([1]; 10% IPM @0.8%): −/− ((−) directionally inferior)
DRY TWL 1 DAY HED ([1]; 10% IPM @0.8%): 0/0 (comparable)
DRY TWL 1 DAY STR ([1]; 10% IPM @0.8%): 0/0 ((0) comparable)
DRY TWL 7 DAYS HED ([1]; 10% IPM @0.8%): 0/0 (comparable)
DRY TWL 7 DAYS STR ([1]; 10% IPM @0.8%): 0/0 ((0) comparable)
DRY TWL 15 DAYS HED ([1]; 10% IPM @0.8%): 0/0 (comparable)
DRY TWL 15 DAYS STR ([1]; 10% IPM @0.8%): 0/0 ((0) comparable)
JAR STR ([1]; 10% IPM @0.8%): 0/0 ((0) comparable)
JAR HED ([1]; 10% IPM @0.8%): 0/0 (comparable)

O=C1CCCCCCCCCCCCCCCO1 [dihydroambrettolide]
Appearance [2, 3]: Very cloudy
Appearance [2, 4]: Phase separation
DAMP HED ([1]; 10% IPM @0.8%): + ((+) directionally superior)
DAMP STR ([1]; 10% IPM @0.8%): 0 ((0) comparable)
DRY TWL 1 DAY HED ([1]; 10% IPM @0.8%): + ((+) directionally superior)
DRY TWL 1 DAY STR ([1]; 10% IPM @0.8%): 0 ((0) comparable)
DRY TWL 7 DAYS HED ([1]; 10% IPM @0.8%): + ((+) directionally superior)
DRY TWL 7 DAYS STR ([1]; 10% IPM @0.8%): 0 ((0) comparable)
DRY TWL 15 DAYS HED ([1]; 10% IPM @0.8%): + ((+) directionally superior)
DRY TWL 15 DAYS STR ([1]; 10% IPM @0.8%): 0 ((0) comparable)
JAR STR ([1]; 10% IPM @0.8%): 0 ((0) comparable)
JAR HED ([1]; 10% IPM @0.8%): − ((−) directionally inferior)

CC(=O)c1cc2c(cc1C)C(C)(C)C(C)CC2(C)C (stereo not shown) [tonalide/fixolide]
Appearance [2, 3]: Very cloudy
Appearance [2, 4]: Phase separation

Scentolide
DAMP HED ([1]; 10% IPM @0.8%): 0 / 0 (comparable)
DAMP STR ([1]; 10% IPM @0.8%): 0 / 0 ((0) comparable)
DRY TWL 1 DAY HED ([1]; 10% IPM @0.8%): −/− ((−) directionally inferior)
DRY TWL 1 DAY STR ([1]; 10% IPM @0.8%): −/− ((−) directionally inferior)
DRY TWL 7 DAYS HED ([1]; 10% IPM @0.8%): −/− ((−) directionally inferior)
DRY TWL 7 DAYS STR ([1]; 10% IPM @0.8%): −/− ((−) directionally inferior)
DRY TWL 15 DAYS HED ([1]; 10% IPM @0.8%): −/− ((−) directionally inferior)
DRY TWL 15 DAYS STR ([1]; 10% IPM @0.8%): −/− ((−) directionally inferior)
JAR STR ([1]; 10% IPM @0.8%): 0/0 ((0) comparable)
JAR HED ([1]; 10% IPM @0.8%): 0/0 (comparable)

CC1CC=CCCCCCCCCCC(=O)C1 (stereo not shown) [MUSCENONE, muscenone]
DAMP HED ([1]; 10% IPM @0.8%): ++
DAMP STR ([1]; 10% IPM @0.8%): + ((+) directionally superior)
DRY TWL 1 DAY HED ([1]; 10% IPM @0.8%): ++/++
DRY TWL 1 DAY STR ([1]; 10% IPM @0.8%): ++/++
DRY TWL 7 DAYS HED ([1]; 10% IPM @0.8%): ++/++
DRY TWL 7 DAYS STR ([1]; 10% IPM @0.8%): ++/++
DRY TWL 15 DAYS HED ([1]; 10% IPM @0.8%): ++/++
DRY TWL 15 DAYS STR ([1]; 10% IPM @0.8%): ++/++
JAR STR ([1]; 10% IPM @0.8%): + ((+) directionally superior)
JAR HED ([1]; 10% IPM @0.8%): ++

O=C1CCCCCCCCCCCC(=O)OCCO1 [Ethylene Brassylate, ethylene brassilate]
Appearance [2, 3]: Very cloudy
Appearance [2, 4]: Phase separation
DAMP HED ([1]; 10% IPM @1.5%): −− /−− ((−−) Significantly inferior)
DAMP STR ([1]; 10% IPM @1.5%): −− /−− ((−−) Significantly inferior)
DRY TWL 1 DAY HED ([1]; 10% IPM @1.5%): −−/−− ((−−) Significantly inferior)
DRY TWL 1 DAY STR ([1]; 10% IPM @1.5%): −−/−− ((−−) Significantly inferior)
DRY TWL 7 DAYS HED ([1]; 10% IPM @1.5%): −−/−− ((−−) Significantly inferior)
DRY TWL 7 DAYS STR ([1]; 10% IPM @1.5%): −−/−− ((−−) Significantly inferior)
DRY TWL 15 DAYS HED ([1]; 10% IPM @1.5%): −−/−− ((−−) Significantly inferior)
DRY TWL 15 DAYS STR ([1]; 10% IPM @1.5%): −−/−− ((−−) Significantly inferior)
JAR STR ([1]; 10% IPM @1.5%): −−/−− ((−−) Significantly inferior)
JAR HED ([1]; 10% IPM @1.5%): −−/−− ((−−) Significantly inferior)

O=C1CCC/C=C\CCCCCCCCCC1 [velvione]
Appearance [2, 3]: Very cloudy
Appearance [2, 4]: Phase separation
DAMP HED ([1]; 10% IPM @0.8%): +/+ ((+) directionally superior)
DAMP STR ([1]; 10% IPM @0.8%): +/+ ((+) directionally superior)
DRY TWL 1 DAY HED ([1]; 10% IPM @0.8%): ++/++
DRY TWL 1 DAY STR ([1]; 10% IPM @0.8%): ++/++
DRY TWL 7 DAYS HED ([1]; 10% IPM @0.8%): ++/++
DRY TWL 7 DAYS STR ([1]; 10% IPM @0.8%): ++/++
DRY TWL 15 DAYS HED ([1]; 10% IPM @0.8%): ++/++
DRY TWL 15 DAYS STR ([1]; 10% IPM @0.8%): ++/++
JAR STR ([1]; 10% IPM @0.8%): + ((+) directionally superior)
JAR HED ([1]; 10% IPM @0.8%): 0 (comparable)

O=C1CCCCCCCCOCCCCCCO1 [OXALIDE T, Oxalide T]
DAMP HED ([1]; 10% IPM @0.8%): 0/0 (comparable)
DAMP STR ([1]; 10% IPM @0.8%): 0/0 ((0) comparable)
DRY TWL 1 DAY HED ([1]; 10% IPM @0.8%): 0/0 (comparable)
DRY TWL 1 DAY STR ([1]; 10% IPM @0.8%): 0/0 ((0) comparable)
DRY TWL 7 DAYS HED ([1]; 10% IPM @0.8%): 0/0 (comparable)
DRY TWL 7 DAYS STR ([1]; 10% IPM @0.8%): 0/0 ((0) comparable)
DRY TWL 15 DAYS HED ([1]; 10% IPM @0.8%): 0/0 (comparable)
DRY TWL 15 DAYS STR ([1]; 10% IPM @0.8%): 0/0 ((0) comparable)
JAR STR ([1]; 10% IPM @0.8%): 0 ((0) comparable)
JAR HED ([1]; 10% IPM @0.8%): − ((−) directionally inferior)
